Measurements as given in patent US6417174B1, “Inhibitors of β-lactamases and uses therefor” (Northwestern University, priority 1997, dated 2002).
Read-outs that look alike come from different tables or passages of the source.

Columns and labels:
[1] = test system: β-lactamase derepressed strain of Enterobacter cloacae (Ent-Der); test: microbe, parasite or virus in culture; format: cell-based; settings: for MIC of ceftazidime plus inhibitor: Table 3A, proportion 4/1, given as CAZ/inhibitor; for MIC of ceftazidime plus inhibitor / MIC of inhibitor used alone without ceftazidime: Ent. Der.; for MIC of inhibitor used alone without ceftazidime: Table 3B; for MIC of amoxicillin plus inhibitor: Table 4A, proportion 4/1; for MIC of amoxicillin plus inhibitor / MIC of inhibitor used alone without amoxicillin: Ent-Der.; for MIC of inhibitor used alone without amoxicillin: Table 4B, not tested above 128 μg/ml, “256” indicates no inhibition of cell growth; for MIC of ceftazidime plus inhibitor: values in µg/ml
Procedure: (§1) After incubation, the growth of the cells was visually inspected. The minimum inhibitory concentration (MIC) is the lowest concentration where there no cell growth was observed.
(§2) The following strains were used: Enterobacter cloacae cell line with derepressed β-lactamase production (Ent-Der), and Escherichia coli RYC1000 (araD139 D lacU169 rpsL D rib7 thiA gyrA recA56) cell lines, harboring the plasmid pBGS19 (with no β-lactamase), or the β-lactamase containing plasmids pBGAmpC (AmpC β-lactamase from E. coli; Eco-AmpC), or pBGAmpC-MHN (AmpC β-lactamase from Enterobacter cloacae; Eco-AmpCEnt). […] TEM-10 and TEM-24 differ from TEM-1 due to the following point substitutions: TEM-10 (R164S, E240K); TEM-24 (L102K, L162S, S235T, A237K). TEM-10 and TEM-24 also differ from TEM-1 in being extended spectrum enzymes (i.e., they react with a greater range of substrates than TEM-1). Also tested were clinical isolates of Pseudomonas aeruginosa. All bacterial strains and plasmids are available from Jesus Blazquez and Fernando Baquero, Servicio de Microbiologia, Hospital Ramon y Cajal, National Institute of Health, Madrid, Spain.
(§3) Several ratios, including 1:1, 2:1, 4:1, and 1:3, of β-lactam antibiotic (amoxicillin (AX) or ceftazidime (CAZ)) to boronic acid compound were used in the assays. Tazobactam (TAZO), a clinically used β-lactamase inibitor, was used as a positive control.

[2] = molecular target: T1, TEM-1 β-lactamase from E. coli (Escherichia coli, UniProt P62593); test: Inhibition of TEM-1 β-lactamase, spectrophotometric assay (FAP substrate); format: biochemical
T1 construct: gift: Natalie Strynadka, University of Alberta

[3] = molecular target: AmpC β-lactamase from E. coli (Escherichia coli, UniProt P00811); test: biochemical; format: biochemical
[4] = test system: E. coli RYC1000 harboring pBGTEM-1 producing TEM-1 β-lactamase (EC-T1); test: microbe, parasite or virus in culture; format: cell-based, Escherichia coli; settings: EC-T1; for MIC of amoxicillin plus inhibitor: Table 4A, proportion 4/1; for MIC of inhibitor used alone without amoxicillin: Table 4B, not tested above 128 μg/ml, “256” indicates no inhibition of cell growth
Procedure: as §1, §2, §3

[5] = test system: E. coli RYC1000 harboring pBGAmpC-E. coli producing AmpC (ECR-AmpCEc); test: microbe, parasite or virus in culture; format: cell-based, Escherichia coli; settings: ECR-AmpCEc; for MIC of amoxicillin plus inhibitor: Table 4A, proportion 4/1; for MIC of inhibitor used alone without amoxicillin: Table 4B, not tested above 128 μg/ml, “256” indicates no inhibition of cell growth
Procedure: as §1, §2, §3

[6] = test system: E. coli RYC1000 harboring pBGTEM-10 producing TEM-10 β-lactamase (EC-T10); test: microbe, parasite or virus in culture; format: cell-based, Escherichia coli; settings: EC-T10; for MIC of amoxicillin plus inhibitor: Table 4A, proportion 4/1; for MIC of inhibitor used alone without amoxicillin: Table 4B, not tested above 128 μg/ml, “256” indicates no inhibition of cell growth
Procedure: as §1, §2, §3

[7] = test system: E. coli RYC1000 harboring plasmid pBGS19 (no β-lactamase); test: microbe, parasite or virus in culture; format: cell-based, Escherichia coli; settings: for MIC of ceftazidime plus inhibitor: Table 3A, proportion 4/1; for MIC of ceftazidime plus inhibitor / MIC of inhibitor used alone without ceftazidime: pBGS19; for MIC of inhibitor used alone without ceftazidime: Table 3B; for MIC of inhibitor used alone without amoxicillin: Table 4B, EC, not tested above 128 μg/ml, “256” indicates no inhibition of cell growth
Procedure: as §1, §2, §3

[8] = test system: E. coli RYC1000 harboring plasmid pBGTEM-24 (TEM-24 β-lactamase); test: microbe, parasite or virus in culture; format: cell-based, Escherichia coli; settings: for MIC of ceftazidime plus inhibitor: Table 3A, proportion 4/1, given as CAZ/inhibitor; for MIC of inhibitor used alone without ceftazidime: Table 3B; for MIC of ceftazidime plus inhibitor: values in µg/ml
Procedure: as §1, §2, §3

[9] = test system: E. coli RYC1000 harboring a plasmid coding for a mutant of AmpC from Enterobacter (ECR-AmpCEnM); test: microbe, parasite or virus in culture; format: cell-based, Escherichia coli; settings: for MIC of amoxicillin plus inhibitor: Table 4A, ECR-AmpCEnM, proportion 4/1; for MIC of inhibitor used alone without amoxicillin: Table 4B, ECRAmpCEnM, not tested above 128 μg/ml, “256” indicates no inhibition of cell growth
Procedure: as §1, §2, §3

[10] = test system: E. coli RYC1000 harboring plasmid pBGAmpC-MHN (AmpC β-lactamase of Enterobacter cloacae); test: microbe, parasite or virus in culture; format: cell-based, Escherichia coli; settings: for MIC of ceftazidime plus inhibitor: Table 3A, proportion 4/1, given as CAZ/inhibitor; for MIC of ceftazidime plus inhibitor / MIC of inhibitor used alone without ceftazidime: AmpC-MHN; for MIC of inhibitor used alone without ceftazidime: Table 3B; for MIC of amoxicillin plus inhibitor: Table 4A, EC-AmpCEn, proportion 4/1; for MIC of inhibitor used alone without amoxicillin: Table 4B, ECAmpCEn, not tested above 128 μg/ml, “256” indicates no inhibition of cell growth; for MIC of ceftazidime plus inhibitor: values in µg/ml
Procedure: as §1, §2, §3

[11] = Tables 2A/2B, pH 7.0, 25° C., 100 μM FAP, N.I. = no inhibition observed at an inhibitor concentration of 100 μM, read-out: Ki E. coli TEM-1
[12] = Tables 2A/2B, pH 7.0, 25° C., 100 μM cephalothin, read-out: Ki E. coli AmpC

T1 sequence (P62593 24-286 limits assumed): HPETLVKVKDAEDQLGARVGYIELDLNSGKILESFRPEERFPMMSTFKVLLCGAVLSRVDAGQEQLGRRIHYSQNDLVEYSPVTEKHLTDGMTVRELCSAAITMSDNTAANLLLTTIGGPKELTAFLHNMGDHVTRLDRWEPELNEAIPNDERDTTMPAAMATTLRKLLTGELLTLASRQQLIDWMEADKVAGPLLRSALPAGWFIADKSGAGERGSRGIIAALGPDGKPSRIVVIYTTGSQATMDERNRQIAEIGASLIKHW
Chain of AmpC β-lactamase from E. coli (P00811 20-377): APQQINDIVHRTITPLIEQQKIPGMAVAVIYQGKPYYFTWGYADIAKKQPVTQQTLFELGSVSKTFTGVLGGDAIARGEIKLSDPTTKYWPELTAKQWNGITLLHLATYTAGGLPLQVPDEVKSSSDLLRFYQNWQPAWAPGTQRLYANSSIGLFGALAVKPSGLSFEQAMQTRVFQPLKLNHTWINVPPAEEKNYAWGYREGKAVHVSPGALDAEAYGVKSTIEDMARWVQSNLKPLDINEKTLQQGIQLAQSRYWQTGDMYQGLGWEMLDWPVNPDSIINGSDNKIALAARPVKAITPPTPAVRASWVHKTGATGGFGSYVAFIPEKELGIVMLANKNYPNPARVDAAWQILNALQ

SMILES	MIC of ceftazidime plus inhibitor [1]	MIC of inhibitor used alone without ceftazidime [1] [µg/mL]	MIC of amoxicillin plus inhibitor [1] [µg/mL]	MIC of inhibitor used alone without amoxicillin [1] [µg/mL]	Ki [2, 11] [µM]	Ki [3, 12] [µM]	MIC of amoxicillin plus inhibitor [4] [µg/mL]	MIC of inhibitor used alone without amoxicillin [4] [µg/mL]	MIC of amoxicillin plus inhibitor [5] [µg/mL]	MIC of inhibitor used alone without amoxicillin [5] [µg/mL]	MIC of amoxicillin plus inhibitor [6] [µg/mL]	MIC of inhibitor used alone without amoxicillin [6] [µg/mL]	MIC of ceftazidime plus inhibitor [7] [µg/mL]	MIC of inhibitor used alone without ceftazidime [7] [µg/mL]	MIC of inhibitor used alone without amoxicillin [7] [µg/mL]	MIC of ceftazidime plus inhibitor [8]	MIC of inhibitor used alone without ceftazidime [8] [µg/mL]	MIC of amoxicillin plus inhibitor [9] [µg/mL]	MIC of ceftazidime plus inhibitor [10]	MIC of amoxicillin plus inhibitor [10] [µg/mL]	also measured
OB(O)c1cc2ccccc2c2ccccc12 [9PHNB, 9-Phenanthreneboronic acid]	512/128	>512	512	256	31	12.6	512	256	512	256	512	256	<0.25	128	256	256/64	128	64	8/2	256	dissociation constant relative to MAPB (AmpC) ([3]; compared with MAPB): two to three-fold worse (higher); MIC of inhibitor used alone without amoxicillin [9]: 256 µg/mL; MIC of inhibitor used alone without ceftazidime [10]: 256 µg/mL; MIC of inhibitor used alone without amoxicillin [10]: 256 µg/mL
OB(O)c1ccc(-c2ccc(B(O)O)cc2)cc1 [BIPD, 4,4′-biphenyldiboronic acid]	128/32	>256	256	256		0.6	256	256	128	128	256	256	<0.12	>256	256	256/64	>256	128	8/2	128	Ki [2]: > 100 µM; Ki ([3]; Example 1, read-out: Ki for AmpC): 0.18 ± 0.02 µM; MIC of inhibitor used alone without amoxicillin [9]: 256 µg/mL; MIC of inhibitor used alone without ceftazidime [10]: >256 µg/mL; MIC of inhibitor used alone without amoxicillin [10]: 256 µg/mL
C1COB([C@@H]2CCOC2)OCCN1 [DETHFB, diethanolamine-(3R)-(+)-tetrahydrofurnylboronate]	32/8		256		27	1.1	512		128		512		0.5	>512	256	256/64		64	4/1	32	
